According to patent US20080089860A1, “Therapeutic compositions and methods useful in treating cancer” (priority 2006, published 2008):
“And” between values parts separate entries of the source, which are not always exact repeats. Equal values may be shown once.

Columns and labels:
PTP1B = target: T1, PTP1B (Homo sapiens, UniProt P18031); experiment: In vitro PTPase assay, GST/PTP1B; assay type: biochemical; conditions: 1-1,000 μg/ml
T1 construct: purchased Upstate Biotechnology Inc. (Lake Placid, N.Y.)
T1 sequence (P18031 whole entry, species assumed): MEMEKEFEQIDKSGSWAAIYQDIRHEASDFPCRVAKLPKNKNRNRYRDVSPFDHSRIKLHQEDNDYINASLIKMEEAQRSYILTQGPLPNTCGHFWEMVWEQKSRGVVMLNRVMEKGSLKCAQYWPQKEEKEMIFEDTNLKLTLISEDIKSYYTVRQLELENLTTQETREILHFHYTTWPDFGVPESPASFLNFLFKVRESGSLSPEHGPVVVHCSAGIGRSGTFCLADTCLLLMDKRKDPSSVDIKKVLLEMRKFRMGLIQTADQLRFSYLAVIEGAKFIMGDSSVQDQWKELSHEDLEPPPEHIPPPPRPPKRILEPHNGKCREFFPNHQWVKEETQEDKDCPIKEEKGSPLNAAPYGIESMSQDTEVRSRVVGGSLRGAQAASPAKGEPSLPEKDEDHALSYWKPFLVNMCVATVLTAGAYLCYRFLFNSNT
Protocol: In vitro PTPase activities were measured using the commercial protein tyrosine phosphatase assay kit (Upstate Biotechnology, Inc. (“UBI”)) following established procedure known to one of skill in the art. This assay measures the in vitro dephosphorylation of a synthetic phosphotyrosine peptide of the sequence Arg-Arg-Leu-Ile-Glu-Asp-Ala-Gle-T- -yr-Ala-Ala-Arg-Gly, wherein the tyrosine is phosphorylated (SEQ ID NO: 3). Briefly, 0.01 µg of GST/PTPase fusion proteins was incubated in 50 µl of Tris buffer (10 mM Tris, pH 7.4) containing different concentrations of inhibitors or chemicals (0-1,000 µg/ml) at 22° C. for 10 minutes, followed by addition of 0.2 mM of the phosphotyrosine peptide and incubation at 22° C. for 18 hours. 100 µl of Malachite Green solution was added and incubated for 5 minutes, and the absorbance at 660 nm was measured after 5 minutes.
In vitro PTPase assays were used to determine the effects of levamisole (Sigma), pentamidine (American Pharmaceutical Partners, Inc.), and ketoconazole (Sigma) on recombinant PTPases, following established procedures (Pathak et al., J. Imumol. 167, 3391 (2001); Pathak et al., Leukemia 16, 2285 (2002), Yi et al., J. Immunol. 169, 5978 (2002)) using a synthetic phosphotyrosine peptide or DiFMUP as the substrate as detailed above in section I.A.2.

[1] = test system: Jak2/Stat5 and cellular protein tyrosine phosphorylation in Baf3 cells; experiment: Cellular protein phosphorylation and Western blotting in Baf3 cells; assay type: cell-based, murine; conditions: Baf3 cells
Protocol: For induction of cellular protein phosphorylation by sodium stibogluconate or pervanadate, Baf3 cells were incubated in 0.1% FCS-RPMI 1640 medium at 37° C. for 16 hours. The cells were then washed twice in RPMI 1640 medium and incubated with sodium stibogluconate or pervanandate (0.1 mM) for various times prior to termination by lysing cells in cold lysis buffer (50 mM Tris, pH 7.4; 150 mM NaCl; 0.2 mM Na3VO4; 20 mm NaF; 1% Nonidet P-40; 2 mM PMSF; 20 µg/ml of Aprotinin and 1 mM of sodium molybdic acid). To determine the effect of sodium stibogluconate or potassium antimonyl tartrate on IL-3-induced Jak/Stat phosphorylation, Baf3 cells were deprived of the growth factor for 16 hours in 0.1% FCS RPMI 1640 medium and then incubated with or without sodium stibogluconate or potassium antimonyl tartrate for 10 minutes. IL-3 was next added to the cell suspension and incubated for various times. The Cells were then harvested and lysed in cold lysis buffer at 4° C. for 45 minutes. Total cell lysates (TCL) were separated in SDS-PAGE gels, blotted onto nitrocellulose membrane (Schleicher & Schuell), probed with specific antibodies and detected using an enhanced chemiluminescence kit (ECL, Amersham, Arlington Heights, Ill.).

Baf3 cells = experiment: Baf3 cell proliferation assay; assay type: cell-based, murine
Protocol: The murine hematopoietic cell line Baf3 was maintained in RPMI 1640 medium supplemented with 10% fetal calf serum (FCS) and murine IL-3 (20 units/ml) as described previously in Damen et al., J. Biol. Chem. 270, 23402 (1995). Human myeloid cell line TF-1 was maintained in RPMI 1640 supplemented with 10% FCS and 40 ng/ml of recombinant human GM-CSF as described previously in Thomassen et al., Clin. Immunol. 95, 85 (2000). For cell proliferation assays, cells were washed in 10% FCS medium twice, resuspended in 10% FCS medium, incubated at 37° C. for 16 hours, and then cultured at 37° C. in 10% FCS medium containing various amounts of cytokines, sodium stibogluconate, or potassium antimonyl tartrate for 3-6 days as indicated. The cell numbers in proliferation assays were determined by an MTT assay or by microscopic cell counting as indicated.

SHP-1 = target: T2, SHP-1 (Mus musculus, UniProt P29351); experiment: In vitro PTPase assay, GST/SHP-1; assay type: biochemical; conditions: 1-1,000 μg/ml
T2 construct: made in house
T2 sequence (P29351 whole entry): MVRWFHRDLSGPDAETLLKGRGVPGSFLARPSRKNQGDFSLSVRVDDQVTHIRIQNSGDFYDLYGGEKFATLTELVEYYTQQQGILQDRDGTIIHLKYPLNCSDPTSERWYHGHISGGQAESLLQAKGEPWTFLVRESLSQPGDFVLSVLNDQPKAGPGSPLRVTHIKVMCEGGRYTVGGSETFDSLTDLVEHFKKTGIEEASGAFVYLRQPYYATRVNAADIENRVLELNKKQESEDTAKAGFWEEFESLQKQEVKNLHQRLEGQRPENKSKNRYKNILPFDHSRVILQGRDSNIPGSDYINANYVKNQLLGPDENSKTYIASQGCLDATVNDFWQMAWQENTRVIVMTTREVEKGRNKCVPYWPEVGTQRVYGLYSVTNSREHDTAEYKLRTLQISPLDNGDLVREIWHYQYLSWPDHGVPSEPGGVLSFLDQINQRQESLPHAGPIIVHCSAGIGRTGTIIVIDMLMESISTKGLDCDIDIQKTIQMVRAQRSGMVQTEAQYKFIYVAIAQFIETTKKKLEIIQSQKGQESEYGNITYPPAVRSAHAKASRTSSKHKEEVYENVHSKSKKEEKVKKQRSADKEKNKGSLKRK
Protocol: In vitro PTPase activities were measured using the commercial protein tyrosine phosphatase assay kit (Upstate Biotechnology, Inc. (“UBI”)) following established procedure known to one of skill in the art. […] Briefly, 0.01 µg of GST/PTPase fusion proteins was incubated in 50 µl of Tris buffer (10 mM Tris, pH 7.4) containing different concentrations of inhibitors or chemicals (0-1,000 µg/ml) at 22° […] 100 µl of Malachite Green solution was added and incubated for 5 minutes, and the absorbance at 660 nm was measured after 5 minutes.
To assess the reversibility of inhibition of SHP-1 by PTPase inhibitors, GST/SHP-1 fusion protein bound on glutathione beads were pre-incubated in cold Tris buffer or Tris buffer containing the PTPase inhibitors at 4° C. for 30 minutes. The beads were then either subjected to in vitro PTPase assays or washed 3 times in Tris buffer then subjected to in vitro PTPase assays.
Briefly, individual PTPases (0.1 µg/reaction) in 50 µL of PTPase buffer (50 mM Tris, pH 7.4) were incubated at 22° C. for 10 minutes or as indicated in the absence or presence of inhibitory compounds. Substrates (0.2 mM phosphotyrosine peptide) were then added and allowed to react at 22° C. for 18 hrs. PTPase activity of individual reactions was measured by adding 100 µL of malachite green solution (UBI) and then quantifying the amounts of free phosphate cleaved by the PTPase from the peptide substrate by spectrometry (OD660 nm). […] Relative PTPase activities were calculated based on the formula: (PTPase activity in the presence of an inhibitory compound/PTPase activity in the absence of the compound)× 100%. To assess the reversibility of PTPase inhibition, GST fusion proteins of the PTPases bound on glutathione beads (Pharmacia) were pre-incubated with cold Tris buffer (50 mM Tris, pH 7.0) or Tris buffer containing the inhibitor at 4° C. for 30 minutes. The beads were then washed three times in cold Tris buffer or not washed prior to subjecting to in vitro PTPase assays.

HL-60 cells = experiment: HL-60 differentiation (NBT reduction); assay type: cell-based, human; conditions: day 6
Protocol: (§1) Differentiation of AML cell lines was assessed by their ability to produce superoxide as measured by reduction of NBT to formazan and by analysis of expression of CD11b surface marker by flow cytometry. For NBT reduction, each cell suspension was mixed with an equal volume of solution containing 1 mg/ml of NBT (Sigma) and 2.5 µg/ml of TPA for 30 minutes at 37° C. After incubation, cells containing the purple formazan deposits and cells devoid of NBT-reducing activity (white cells) in each sample were determined by counting 200 cells under microscope. Data is expressed as a percentage based on the following ratio: purple cells/purple+white cells. For analysis of cell surface antigens, cells were exposed to phycoerythrin (PE)-conjugated murine anti-human CD11b (DAKO Corp., Carpinteria, Calif.). Analysis of fluorescence was performed on a FACScan flow cytometer (Beckton Dickinson, Mountain View, Calif.).

U937 cells = experiment: U937 differentiation (NBT reduction); assay type: cell-based, human; conditions: day 6
Protocol: as §1

[2] = test system: acute promyelocytic leukemia; conditions: in vivo; cited from earlier work
NB4 cells [3] = experiment: NB4 cell cycle analysis and Annexin V/propidium iodide assay; assay type: cell-based, human; conditions: 3 days; sodium stibogluconate 250 μg/ml, ATRA 1 μM
Protocol: […] Briefly, the cells were fixed in cold ethanol and incubated for 30 minutes at 4° C. in the dark with a solution of […], 1 mg/ml RNase and 0.1% NP-40. Analysis was performed immediately after staining using the CELLFIT program (Becton Dickinson, Mountain View, Calif.).
] Annexin V staining of exposed membrane phospholipid phosphatidylserine (PS) was done using the Annexin V assay kit (Pharmingen, San Diego, Calif.). Briefly, NB4 cells were cultured in the 10% FCS RPMI 1640 medium in the absence or presence of sodium stibogluconate (250 µg/ml) or ATRA (1 µM) for 3 days. Cells were then washed in PBS twice and stained in binding buffer (10 mM Hepes, pH 7.4; 140 mM NaCl; 2.5 mM CaCl2) containing Annexin V-FITC and propidium iodide for 15 min. The reaction was stopped by adding 10 volumes of binding buffer and analyzed by FACS (Becton Dickinson Facsvantage).

NB4 cells [4] = experiment: NB4 differentiation (NBT reduction, CD11b); assay type: cell-based, human; conditions: GM-CSF alone
Protocol: as §1

[5] = sodium stibogluconate 400 μg/ml, GM-CSF 25 ng/ml

**Q.** For `O.O.O.O=C([O-])[C@H]([O-])[C@@H]([O-])C(=O)[O-].O=C([O-])[C@H]([O-])[C@@H]([O-])C(=O)[O-].[K+].[K+].[Sb+3].[Sb+3]` [potassium antimonyl tartrate], which “inhibition of PTP1B” value (PTP1B) is on record?
**A.** The value was “no detectable inhibition”.

**Q.** And the “IL-3-induced Stat5 phosphorylation” value [1]?
**A.** Its value is “failed to enhance”.

**Q.** And the “toxicity against Baf3 cells” value (Baf3 cells)?
**A.** The value was “marked toxicity”.

**Q.** What about the “IL-3-induced proliferation of Baf3 cells” value (Baf3 cells; IL-3 10 units/ml, three days) of the same molecule?
**A.** Its value is “failed to enhance”.

**Q.** And the “inhibition of SHP-1” value (SHP-1)?
**A.** Its value is “no detectable inhibition”.

**Q.** Which results are given for `CC1=C(/C=C/C(C)=C/C=C/C(C)=C/C(=O)O)C(C)(C)CCC1` [ATRA, All-trans-retinoic acid]?
**A.** HL-60 differentiation (NBT-positive cells) (HL-60 cells; [5]): 90%; U937 differentiation (NBT-positive cells) (U937 cells; [5]): 72% and 73%; long term APL-free survival [2]: exceeding 75%; cell cycle distribution of NB4 cells (NB4 cells [3]): arrested at G1 phase

**Q.** With GM-CSF: recombinant human GM-CSF as the molecule, how does the “maximal increase of NBT-positive cells” value (HL-60 cells; GM-CSF alone) read?
**A.** The value was 8-10%.

**Q.** What about the “maximal increase of NBT-positive cells” value (U937 cells; GM-CSF alone) of the same molecule?
**A.** The value was 8-10%.

**Q.** What about the “effect on NB-4 cell differentiation” value (NB4 cells [4]) of the same molecule?
**A.** The value was “no detectable effect”.
